From patent publication US6242443A, “1,2,4-benzothiadiazine derivatives, their preparation and use” (Novo Nordisk AIS, priority 1996, dated 2001) come the findings set out here.

The first experiment relates to RIN 5F cells. Briefly: 86Rb+ efflux from a β-cell line (increased Rb-efflux in RIN 5F cells). The following applies: 1 h at room temperature, pH 7.1. It counts as cell-based. As to the method: ^86 Rb^+ efflux from a β-cell line
The RIN 5F cell line was grown in RPMI 1640 with Glutamax I, supplemented with 10% fetal calf serum (from GibcoBRL, Scotland, UK) and maintained in an atmosphere of 5% CO2 /95% air at 37° C. The cells were detached with a Trypsin-EDTA solution (from GibcoBRL, Scotland, UK), resuspended in medium, added 1 mCi/ml ^86 Rb^+ and replated into microtiter plates (96 well cluster 3596, sterile, from Costar Corporation,MA, USA) at a density of 50000 cells/well in 100 μl/well, and grown 24 hours before use in assay.
The plates were washed 4 times with Ringer buffer (150 mM NaCl, 10 mM Hepes, 3.0 mM KCl, 1.0 mM CaCl2, 20 mM Sucrose, pH 7.1). Eighty μl Ringer buffer and 1 μl control- or test compound dissolved in DMSO was added. After incubation 1 h at room temperature with a lid, 50 μl of the supernatant was transferred to PicoPlates (Packard Instrument Company, CT, USA) and 100 μl MicroScint40 (Packard Instrument Company, CT, USA) added. The plates were counted in TopCount (Packard Instrument Company, CT, USA) for 1 min/well at the ^32 P program.
The calculation of EC50 and Emax was done by SlideWrite (Advanced Graphics Software, Inc., CA, USA) using a four parameter logistic curve: y=(a-d)/(1+(x/c)^b)+d, where a=the activity estimated at concentration zero, b=a slope factor, c=the concentration at the middle of the curve and, d=the activity estimated at infinite concentration. EC50 =c and Emax =d, when the curve is turned of at infinite concentrations.
`CC(C)C(C)NC1=NS(=O)(=O)c2cc(Cl)c(Cl)cc2N1` (stereo not shown) [Example 26, 6,7-Dichloro-3-(1,2-dimethylpropyl)amino-4H-1,2,4-benzothiadiazine 1,1-dioxide] yielded an EC50 of 12.9 µM.

As for `O=S1(=O)N=C(NCC2CCCCC2)Nc2ccc(Cl)cc21` [Example 66, 7-Chloro-3-(cyclohexylmethyl)amino-4H-1,2,4-benzothiadiazine 1,1-dioxide], the EC50 amounted to 9.4 µM.

`O=S1(=O)N=C(NCc2ccccc2)Nc2ccc(I)cc21` [Example 86, 3-Benzylamino-7-iodo-4H-1,2,4-benzothiadiazine 1,1-dioxide] returned an EC50 of 13 µM.

The test system of another experiment is rat aorta rings. In words: Relaxation of rat aorta rings (phenylephrine-contracted). Conditions: rat thoracic aorta rings contracted with phenylephrine to 80% of maximum response, cumulative addition; read-out: EC50 (concentration required to evoke a 50% relaxation of the tissue). It counts as cell-based. As to the method:
The activity of the compounds as potassium channel openers can also be measured as relaxation of rat aortas rings according to the following procedure:
A section of rat thoracic aorta between the aortic arch and the diaphragm was dissected out and mounted as ring preparations as described by Taylor P. D. et al, Brit J. Pharmacol, 111, 42-48 (1994).
After a 45 min. equilibration period under a tension of 2 g, the preparations were contracted to achieve 80% of the maximum response using the required concentration of phenylephrine. When the phenylephrine response reached a plateau, potential vasodilatory agents were added cumulatively to the bath in small volumes using half log molar increments at 2 min intervals. Relaxation was expressed at the percentage of the contracted tension. The potency of a compound was expressed as the concentration required to evoke a 50% relaxation of the tissue.
On to `CC(C)NC1=NS(=O)(=O)c2ccc(C(F)(F)F)cc2N1` [Example 50, 3-Isopropylamino-6-trifluoromethyl-4H-1,2,4-benzothiadiazine 1,1-dioxide], for which the EC50 is 5.2 µM.

For the molecule `C[C@H](NC1=NS(=O)(=O)c2cc(I)ccc2N1)c1ccccc1` [Example 88, 7-Iodo-3-(S)-(1-phenylethyl)amino-4H-1,2,4-benzothiadiazine 1,1-dioxide], the EC50 turned out to be 32.7 µM.

For `CCNC1=NS(=O)(=O)c2cc(Br)ccc2N1` [Example 94, 7-Bromo-3-ethylamino-4H-1,2,4-benzothiadiazine 1,1-dioxide], the EC50 worked out at 4.8 µM.

For `CCNC1=NS(=O)(=O)c2cc(F)ccc2N1` [Example 101, 3-Ethylamino-7-fluoro-4H-1,2,4-benzothiadiazine 1,1-dioxide], the EC50 was found to be 14.1 µM.
